These results are taken from publication PMC4801406, “MTH1 Substrate Recognition—An Example of Specific Promiscuity” (PLoS ONE, 2016).

“And” between values parts separate entries of the source, which are not always exact repeats. Identical values can stand only once. Like-named read-outs stand apart in the source and are kept apart here. Bounds are passed on as bounds.

The target of assay [1] is T1, MTH1 (Homo sapiens, UniProt P36639).
T1 construct: Full length p18 isoform MTH1 (M1-156) with an N-terminal 6-His TEV protease cleavable tag; 6-His (TEV-cleavable) (N, cleaved yes); made in house; host or cells: E. coli Gold BL21(DE3)
Put plainly: MTH1 substrate Km determination (PPiLight pyrophosphate detection; malachite green coupled assay). In kind it is biochemical. The note with it: this publication; 0.2 nM MTH1, substrate 0–300 μM. Here is the method:
MTH1 substrate Km determination assay conditions were 0.2 nM MTH1 and a concentration range of substrate from 0–300 μM, diluted in MTH1 reaction buffer (100 mM HEPES pH 7.5, 10 mM MgCl, 1 mM DTT and 0.005% Tween 20). After a reaction time of 15 minutes, pyrophosphate (PPi) released by the reaction was detected using the PPiLight inorganic pyrophosphate assay kit from Lonza and luminescence was monitored using the Perkin Elmer EnVision multimode plate reader. Substrates dGTP and 2-OH—dATP were sourced from Jena Bioscience. Substrates 8-oxo-dGTP, 8-oxo-rGTP, 8-oxo-dATP, 8-oxo-rATP and 2-OH-rATP were sourced from TriLink BioTechnologies.
All oxidised ATP-derived substrates were then tested using an assay format based on the enzymatic hydrolysis of the nucleotide substrate by purified human recombinant MTH1 to form the corresponding monophosphate nucleotide and pyrophosphate. An excess of inorganic pyrophosphatase was added to the assay, which allows the quantification of released inorganic phosphate as a measure of product levels in a coupled enzymatic assay. Inorganic phosphate was measured using an absorbance assay based on malachite green as described by Baykov et al.. The assay buffer in which MTH1, inorganic pyrophosphatase and substrates were diluted consisted of 100mM Tris at pH 7.4, 40 mM NaCl, 10 mM MgCl, 0.005% Tween 20 and 1 mM DTT. The final conditions in the assay during enzymatic incubation were 0.2 nM recombinant human MTH1, a three fold dilution range of 0–300 μM oxidised nucleotide substrate and 0.2U per ml inorganic pyrophosphatase.

Assay [2] concerns the target T1, MTH1. As to conditions: literature value, cited from earlier work.
For assay [3], the target named is T1, MTH1. The assay can be described thus: 2D-NMR (1H-15N SOFAST-HMQC) titration, Kd from chemical shift perturbations. In kind it is binding. As to conditions: 100 μM 15N-MTH1, 298 K, pH 7.4. Here is the method:
Uniformly ^15N-labeled MTH1 was prepared as above with the TB media replaced M9 minimal media supplemented with 5 g/l of IsoGro base powder (^15N, 98%, Isotec) and 2 g/l of glucose. NMR samples were 100 μM in 50mM HEPES pH 7.4, 50 mM NaCl, 1 mM TCEP, 0.1 mM EDTA, 0.02% NaN3 and employing 1% d^6-DMSO as a lock signal. Spectra were acquired at 298 K on a Bruker Avance 600 MHz spectrometer running Topspin 2.1, equipped with a 5mm TCI cryoprobe with Z-axis gradients. The protein was titrated with compound stocks (100 mM in d6-DMSO) to give typical final compound concentrations 0, 50, 100, 198, 396, 593, 984, 1949 and 3824 μM; these were measured using ^1H-^15N-SOFAST-HMQC [17] experiments recorded with […] (t2,t1) complex points (in States-TPPI mode), and 9615x1624 Hz (^1H,^15N) spectral widths, (53.4 ms x 30.8 ms) acquisition times, respectively). The affinity of the compounds was determined via simultaneous nonlinear fitting of fast-exchange chemical shift perturbations (typically 5 amide correlations, employing absolute value of the linear ^1H,^15N chemical shift vector), with the GraFit package against compound concentration using a mass action binding isotherm equation.

The target in assay [4] is T1, MTH1. The assay can be described thus: Biochemical IC50 for fragments (Fig 5).
In assay [5] the target is T2, Histidine-tagged MTH1 (isoform p18 (M1-V156)) (Homo sapiens, UniProt P36639).
T2 construct: Histidine-tagged MTH1 (isoform p18 (M1-V156)) was immobilized; made in house; host or cells: E. coli Gold BL21(DE3)
Put plainly: Surface plasmon resonance (SPR) equilibrium binding. The note with it: steady-state, 1:1 Langmuir fit. How it is done:
SPR experiments were performed using a Biacore T200 biosensor (GE Healthcare). Series S NTA sensor chips (GE Healthcare) were used. All experiments were carried out using assay buffer containing; 50 mM HEPES pH 7.5, 150 mM NaCl, 0.005% Tween-20 (v/v) and 1% DMSO (v/v) as running buffer. Typically, 10 mM DMSO stocks of compounds were diluted 1:100 (v/v) in 50 mM HEPES pH 7.5, 150 mM NaCl, 0.005% Tween-20 (v/v) to form 100 μM intermediate stocks with final DMSO concentration of 1% (v/v). The intermediate solutions were then subsequently diluted using assay buffer to achieve final concentration range.
Histidine-tagged MTH1 (isoform p18 (M1-V156)) was immobilized as the ligand onto NTA sensor chips using a capture coupling method. Assay buffer was used as immobilization buffer. The nitrilotriacetic (NTA) surface was first activated with a 2-min injection of 500 μM NiCl2 in running buffer before the carboxymethyl dextran surface was activated with a 7-min injection of a 1:1 ratio of 0.4 M EDC and 0.1 M NHS. His-tagged protein was diluted into running buffer to a concentration of 20 μg/mL and immobilized to the surface with a 7-min injection. Remaining activated groups were blocked with two consecutive 60-sec pulses of 0.5 M Ethanolamine. Typical immobilization levels ranged from 500 to 3000 resonance units (RU).
Biacore T200 Evaluation software (GE Healthcare) was used for data processing and analysis. Equilibrium binding analysis was analyzed by plotting steady-state response level vs. compound concentration and fitting to the Langmuir equation (describing simple 1:1 binary interaction).
Background: SPR reads the build-up and loss of mass on a sensor chip optically.

One may read the Km as the concentration of substrate that gives half-maximal velocity. `Nc1[nH]c(=O)nc2c1ncn2[C@@H]1O[C@H](COP(=O)(O)OP(=O)(O)OP(=O)(O)O)[C@@H](O)[C@H]1O` [Compound 2-OH-rATP, 2-OH-rATP]: the Km was 13.4 µM and 13 µM on MTH1 [1]; 4.3 µM on MTH1 [2] (ref [4],[34]).

As for `Nc1[nH]c(=O)nc2c1ncn2[C@H]1C[C@H](O)[C@@H](COP(=O)(O)OP(=O)(O)OP(=O)(O)O)O1` [Compound 2-OH-dATP, 2-OH-dATP], the values for the Km on MTH1 [1] and on MTH1 [2] (ref [4],[34]) were 14 ± 6 µM and 8.3 µM, respectively.

As for `Nc1ncnc2c1[nH]c(=O)n2[C@H]1C[C@H](O)[C@@H](COP(=O)(O)OP(=O)(O)OP(=O)(O)O)O1` [Compound 8-oxo-dATP, 8-oxo-dATP], the figures for the Km at MTH1 [1], on MTH1 [2] (ref [4],[34]) and at MTH1 [2] (ref [26]) were 7.6 ± 0.5 µM, 15.2 µM and 13.9 µM, respectively.

Take `Nc1nc2c([nH]c(=O)n2[C@@H]2O[C@H](COP(=O)(O)OP(=O)(O)OP(=O)(O)O)[C@@H](O)[C@H]2O)c(=O)[nH]1` [Compound 8-oxo-rGTP, 8-oxo-rGTP]: the Km at MTH1 [1] was 82 ± 45 µM; on MTH1 [2] (ref [4],[34]), 55 µM.

In the case of `Nc1ncnc2c1[nH]c(=O)n2[C@@H]1O[C@H](COP(=O)(O)OP(=O)(O)OP(=O)(O)O)[C@@H](O)[C@H]1O` [Compound 8-oxo-rATP, 8-oxo-rATP], the Km on MTH1 [1] was 241 µM and 240 µM; on MTH1 [2] (ref [4],[34]), 51 µM.

As a reminder, the Kd is a measure of binding affinity in units of concentration. One may read the IC50 as the concentration that gives 50% inhibition. Consider `Cn1c(=O)[nH]c2c(=O)[nH]c(N)nc21` [Compound 1], for which the Kd at MTH1 [3] turned out to be 400 µM. On MTH1 [4], this compound yielded an IC50 of over 100 µM.

For `CNc1cc(=O)[nH]c(=O)[nH]1` [Compound 7], the figures for the Kd (on MTH1 [3]; in assay [5]) were under 5 µM and 0.81 µM, respectively. On MTH1 [4], the IC50 came to 1.5 µM.

Regarding `Cc1cc(OCCCO)nc(N)n1` [Compound 6], the Kd at MTH1 [3] is under 5 µM; in assay [5], 1.7 µM. The compound also came in with an IC50 against MTH1 [4] of 4.5 µM.

With `CNc1nc2c(ncn2C)c(=O)[nH]1` [Compound 3], the Kd on MTH1 [3] came to 82 ± 6 µM; in assay [5] it was 24 ± 0.4 µM. At MTH1 [4], this compound yielded an IC50 of 59 µM.

Take `Cn1cnc2c(O)nc(N)nc21` [Compound 2]: the dissociation constant (Kd) on MTH1 [3] was 1100 µM. For the same compound, the IC50 on MTH1 [4] is over 100 µM.

In the case of `CC(=O)Nc1ccc2c(c1)ncn2C` [Compound 5], the dissociation constant (Kd) is 95 ± 35 µM on MTH1 [3] and over 40 µM in assay [5]. The compound also gave an IC50 against MTH1 [4] of over 80 µM.

`Nc1nc2c(ncn2[C@H]2C[C@H](O)[C@@H](COP(=O)(O)OP(=O)(O)OP(=O)(O)O)O2)c(=O)[nH]1` [dGTP]: the Km was 420 µM on MTH1 [1] and 258 µM at MTH1 [2] (ref [4],[34]).

For `CN(C)c1nc2c(ncn2C)c(=O)[nH]1` [Compound 4], on MTH1 [3], the Kd is 2200 µM. Besides, at MTH1 [4], the IC50 is over 100 µM.
